Assays:
human renin [1] = target: T1, human renin (Homo sapiens, UniProt P00797); set-up: human high renin plasma; from tissue; host or cells: human high renin plasma; conditions: reported at 1986 meetings; cited from earlier work
T1 sequence (P00797 67-406): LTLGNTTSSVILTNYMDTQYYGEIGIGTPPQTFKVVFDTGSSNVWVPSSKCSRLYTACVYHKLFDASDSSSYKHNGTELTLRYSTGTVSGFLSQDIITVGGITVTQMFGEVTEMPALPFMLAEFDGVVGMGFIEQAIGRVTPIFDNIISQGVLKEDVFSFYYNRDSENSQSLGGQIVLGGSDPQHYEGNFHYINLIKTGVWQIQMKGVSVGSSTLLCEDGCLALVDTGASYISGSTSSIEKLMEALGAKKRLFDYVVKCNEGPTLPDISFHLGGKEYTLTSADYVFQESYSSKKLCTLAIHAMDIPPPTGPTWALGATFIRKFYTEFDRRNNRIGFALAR

human renin [2] = target: T1, human renin; assay: Human renin-sheep renin substrate reaction system in vitro; type: biochemical; conditions: purified human renin, semipurified sheep renin substrate, pH 7.4, 37° C., 15 minutes
Protocol: Human renin-sheep renin substrate reaction system in vitro
To a mixture containing 200 μl of a 125 mM pyrophosphate buffer (pH 7.4), 25 μl of a 20 mM aqueous solution of L-phenylalanyl-L-alanyl-L-prolin as an angiotensin converting enzyme inhibitor, 50 μl of semipurified sheep renin substrate (2000 ng angiotensin I/ml), 50 μl of dimethyl sulfoxide solution of an amino acid derivative of the present invention or 50 μl of dimethyl sulfoxide as a control and 150 μl of deionized water was added 25 μl of purified human renin (20-30 ng angiotensin I/ml/hr). The mixture was incubated for 15 minutes on a water bath at 37° C., and the reaction mixture was allowed to stand for 5 minutes on a water bath at 100° C. to stop the reaction. After cooling, 200 μl of the solution were taken out and the amount of angiotensin I produced by the addition of renin was determined by radioimmunoassay. The inhibitory effect was calculated by the following equation. [formula]
The molar concentration which produced a 50% inhibition (IC50) was calculated from the inhibition value obtained, and the results are shown below. [drawing 19]

[3] = Hypotensive effect in marmoset; type: in vivo, common marmoset; conditions: 30 mg/kg oral, furosemide-treated high renin marmoset, Control 84.3 mmHg
Protocol: Hypotensive effect in marmoset
The experiment was carried out by using common marmoset as described in K. G. Hofbauer et al., Clinical and Experimental hypertension, Vol. A5, Nos. 7 & 8 (1983), pages 1237-1247.
Furosemide was orally administered three times to common marmoset at 15 mg per kilogram per day every other day to create a high renin state. Blood pressure of conscious marmoset was measured 3 days after the last administration of furosemide.
Measurement of blood pressure
A conscious male marmoset weighing 360 g was binded on a monkey chair, and tailarterial pressure was recorded on a pretismograph. The amino acid compound of the present invention, administred orally using a catheter.
(a) Compound: Isopropyl (2RS, 3S)-3-{N-[2-(1-naphthylmethyl)-3-(morpholinocarbonyl)propionyl]-L-alanyl}amino-2-hydroxy-5-methylhexanoate

human renin [4] = target: T1, human renin; assay: Renin inhibitory effect in a human high renin plasma; type: biochemical; set-up: human high renin plasma; from tissue; host or cells: human high renin plasma; conditions: phosphate buffer pH 7.0, 37° C., 60 minutes
Protocol: Renin inhibitory effect in a human high renin plasma
The mixture consisted of 500 μl of human high renin plasma, 50 μl of 20 mM L-phenylalanyl-L-alanyl-L-prolin, an angiotensin converting enzyme inhibitor, 350 μl of 0.5 M phosphate buffer (pH 7.0) containing 14 mM EDTA·2Na and 0.3% neomycin and 100 μl of appropriate concentration of amino acid compound of the present invention dissolved in DMSO or DMSO as a control. A 200 μl sample was taken out from the solution, and was cooled at 4° C. in an ice bath. The remaining sample (800 μl) was incubated for 60 minutes at 37° C. in a water bath. A 200 μl of sample was taken out from the incubated mixture, and chilled immediately in an ice bath. The amount of angiotensin I produced in both samples was determined by radioimmunoassay, and the net amount was estimated as a difference between the samples incubated at 37° C. and the sample cooled at 4° C.
The inhibitory effect was calculated by the following equation: [formula]
The molar concentration which produced 50% inhibition (IC50) was calculated from the inhibition value obtained, and the results are shown below. [drawing 32]

Row | Compound | IC50 (human renin [2]) | IC50 (human renin [4]) | other results
1 | COC(=O)C(O)C(CC(C)C)NC(=O)[C@H](Cc1c[nH]cn1)NC(=O)C(CC(=O)NCCc1ccccc1)Cc1cccc2ccccc12 (stereo partly drawn) | – | – | Human renin inhibitory activity (human renin [1]): human renin inhibitory activity
2 | CC(C)CCNC(=O)C[C@H](O)[C@H](CC(C)C)NC(=O)[C@H](CC(C)C)NC(=O)C(CC(=O)N1CCOCC1)Cc1cccc2ccccc12 (stereo partly drawn) [No. 4, N-[2-(1-Naphthylmethyl)-3-(morpholinocarbonyl)-propionyl]-L-leucyl-statiyl isoamylamide] | 80 nM | 61 nM | –
3 | CC(C)C[C@H](NC(=O)[C@H](Cc1ccccc1)NC(=O)C(CC(=O)N1CCOCC1)Cc1cccc2ccccc12)C(O)C(=O)OC(C)C (stereo partly drawn) [compound 6] | 48 nM | 140 nM | –
4 | CC(C)C[C@H](NC(=O)[C@H](Cc1c[nH]c2ccccc12)NC(=O)C(CC(=O)N1CCOCC1)Cc1cccc2ccccc12)C(O)C(=O)OC(C)C (stereo partly drawn) [compound 7] | 290 nM | 510 nM | –
5 | CC(C)C[C@H](NC(=O)CNC(=O)C(CC(=O)N1CCOCC1)Cc1cccc2ccccc12)C(O)C(=O)OC(C)C (stereo partly drawn) [compound 9] | 390 nM | 200 nM | –
6 | CC(C)C[C@H](NC(=O)CCNC(=O)C(CC(=O)N1CCOCC1)Cc1cccc2ccccc12)C(O)C(=O)OC(C)C (stereo partly drawn) [compound 10] | 130 nM | 46 nM | –
7 | COC(=O)[C@@H]1CCCN1C(=O)CC(Cc1cccc2ccccc12)C(=O)N[C@@H](C)C(=O)N[C@@H](CC(C)C)C(O)C(=O)OC(C)C (stereo partly drawn) [compound 11] | 59 nM | 44 nM | –

Continued, in another order:

Row | IC50 (human renin [2]) | IC50 (human renin [4]) | Compound | other results
8 | 26 nM | 20 nM | CC(C)C[C@H](NC(=O)[C@H](C)NC(=O)C(CC(=O)N1CCOCC1)Cc1cccc2ccccc12)C(O)C(=O)OC(C)C (mixture of isomers) [No. 1, Isopropyl (2RS, 3S)-3-{N-[2-(1-naphthylmethyl)-3-(morpholinocarbonyl)propionyl]-L-alanyl}amino-2-hydroxy-5-methylhexanoate] | Blood pressure ([3]; 1 hour after administration): 75.8 mmHg; Blood pressure ([3]; 2 hours after administration): 70.0 mmHg; Blood pressure ([3]; 3 hours after administration): 70.0 mmHg; Blood pressure ([3]; 5 hours after administration): 70.0 mmHg; Blood pressure ([3]; 7 hours after administration): 72.6 mmHg
9 | 30 nM | 11 nM | COC(=O)C(O)[C@H](CC(C)C)NC(=O)[C@H](CC(C)C)NC(=O)C(CC(=O)N1CCOCC1)Cc1cccc2ccccc12 (mixture of isomers) [No. 3, Methyl (2RS, 3S)-3-{N-[2-(1-naphthylmethyl)-3-(morpholinocarbonyl)propionyl]-L-leucyl}amino-2-hydroxy-5-methylhexanoate] | –
10 | 14 nM | 16 nM | CC(C)C[C@H](NC(=O)C(CC(=O)N1CCOCC1)Cc1cccc2ccccc12)C(=O)N[C@@H](CC(C)C)C(O)C(=O)OC(C)C (stereo partly drawn) [compound 2] | –
11 | 6.6 nM | 3.3 nM | CC(C)C[C@H](NC(=O)[C@@H](NC(=O)C(CC(=O)N1CCOCC1)Cc1cccc2ccccc12)C(C)C)C(O)C(=O)OC(C)C (stereo partly drawn) [compound 5] | –
12 | 26 nM | 7.2 nM | CC(C)C[C@H](NC(=O)[C@H](CO)NC(=O)C(CC(=O)N1CCOCC1)Cc1cccc2ccccc12)C(O)C(=O)OC(C)C (stereo partly drawn) [compound 8] | –
13 | 15 nM | 13 nM | COC(=O)CN(C)C(=O)CC(Cc1cccc2ccccc12)C(=O)N[C@@H](C)C(=O)N[C@@H](CC(C)C)C(O)C(=O)OC(C)C (stereo partly drawn) [compound 12] | –

Reference: patent US4853463A, “Amino acid derivatives” (Kissei Pharmaceutical Co., Ltd., priority 1985, dated 1989)
